Experimental data: ChEMBL document CHEMBL1201862, “PubChem BioAssay data set” (2004)
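1) Cells in 96-well plates. 2) Compound, 48 h, 5 concentrations. 3) Linear interpolation between surrounding doses. 4) Unreached endpoint = highest concentration. The concentration for 50% growth inhibition is given as GI50.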 Active and inactive are the calls of the source. Cut-off read from the data, not from the text of the source: active = GI50 up to about 1.1 µM and inactive = higher.

How the values were obtained:
Experiment in all cases: growth of human tumour cells (NCI), 48 h
[1] = system: CCRF-CEM
[2] = system: NCI-H226
[3] = system: UO-31
[4] = system: MCF7
[5] = system: SF-539
[6] = system: NCI-H460
[7] = system: Hs-578T
[8] = system: HOP-92
[9] = system: HOP-62
[10] = system: COLO 205
[11] = system: OVCAR-4
[12] = system: KM12
[13] = system: 786-0
[14] = system: BT-549
[15] = system: MDA-N
[16] = system: NCI-H522
[17] = system: ACHN
[18] = system: MDA-MB-435
[19] = system: K562
[20] = system: RPMI-8226
[21] = system: MDA-MB-231
[22] = system: MOLT-4
[23] = system: SNB-19
[24] = system: OVCAR-8
[25] = system: UACC-62
[26] = system: SF-268
[27] = system: NCI-H23
[28] = system: M14
[29] = system: RXF 393
[30] = system: SK-MEL-2
[31] = system: SW-620
[32] = system: SNB-75
[33] = system: CAKI-1
[34] = system: IGROV-1
[35] = system: A498
[36] = system: HT-29
[37] = system: A549
[38] = system: EKVX
[39] = system: TK-10
[40] = system: SR
[41] = system: OVCAR-3
[42] = system: PC-3
[43] = system: HCT-15
[44] = system: SN12C
[45] = system: SK-MEL-28
[46] = system: HCT-116
[47] = system: HL-60
[48] = system: DU-145
[49] = system: SF-295
[50] = system: U-251
[51] = system: UACC-257
[52] = system: T47D
[53] = system: LOX IMVI
[54] = system: NCI/ADR-RES
[55] = system: SK-MEL-5
[56] = system: OVCAR-5
[57] = system: HCC 2998
[58] = system: SK-OV-3

Structure (SMILES): C=C(Cl)COC(=O)Nc1cccc(Cl)c1
- GI50 [1]: 28.2 µM (inactive)
- GI50 [2]: 44.8 µM (inactive)
- GI50 [3]: 12 µM (inactive)
- GI50 [4]: 28.1 µM (inactive)
- GI50 [5]: 54.8 µM (inactive)
- GI50 [6]: 32.6 µM (inactive)
- GI50 [7]: 34 µM (inactive)
- GI50 [8]: 22.7 µM (inactive)
- GI50 [9]: 38.3 µM (inactive)
- GI50 [10]: 31.7 µM (inactive)
- GI50 [11]: 16.2 µM (inactive)
- GI50 [12]: 31.6 µM (inactive)
- GI50 [13]: 27.4 µM (inactive)
- GI50 [14]: 26.7 µM (inactive)
- GI50 [15]: 34.2 µM (inactive)
- GI50 [16]: 25.1 µM (inactive)
- GI50 [17]: 34.9 µM (inactive)
- GI50 [18]: 30.1 µM (inactive)
- GI50 [19]: 54.6 µM (inactive)
- GI50 [20]: 39.4 µM (inactive)
- GI50 [21]: 40.4 µM (inactive)
- GI50 [22]: 57.5 µM (inactive)
- GI50 [23]: 35.6 µM (inactive)
- GI50 [24]: 32.6 µM (inactive)
- GI50 [25]: 20.6 µM (inactive)
- GI50 [26]: 40.1 µM (inactive)
- GI50 [27]: 30.4 µM (inactive)
- GI50 [28]: 35.4 µM (inactive)
- GI50 [29]: 25 µM (inactive)
- GI50 [30]: 22.5 µM (inactive)
- GI50 [31]: 39.3 µM (inactive)
- GI50 [32]: 26.4 µM (inactive)
- GI50 [33]: 31.9 µM (inactive)
- GI50 [34]: 26.7 µM (inactive)
- GI50 [35]: 23.4 µM (inactive)
- GI50 [36]: 33.3 µM (inactive)
- GI50 [37]: 30.3 µM (inactive)
- GI50 [38]: 22.5 µM (inactive)
- GI50 [39]: 60 µM (inactive)
- GI50 [40]: 51.1 µM (inactive)
- GI50 [41]: 28.1 µM (inactive)
- GI50 [42]: 29 µM (inactive)
- GI50 [43]: 28.6 µM
- GI50 [44]: 33.8 µM (inactive)
- GI50 [45]: 42.1 µM (inactive)
- GI50 [46]: 27 µM (inactive)
- GI50 [47]: 24.4 µM (inactive)
- GI50 [48]: 31.1 µM (inactive)
- GI50 [49]: 25.7 µM (inactive)
- GI50 [50]: 34.4 µM (inactive)
- GI50 [51]: 31 µM (inactive)
- GI50 [52]: 22.9 µM (inactive)
- GI50 [53]: 35.6 µM (inactive)
- GI50 [54]: 29.3 µM (inactive)
- GI50 [55]: 18 µM (inactive)
- GI50 [56]: 48.2 µM (inactive)
- GI50 [57]: 37.1 µM (inactive)
- GI50 [58]: 72.8 µM (inactive)

Structure (SMILES): CCCCCCCCCCCCCCCC[N+](C)(C)Cc1ccc(F)cc1
- GI50 [1]: 0.771 µM (active)
- GI50 [2]: 2.15 µM (inactive)
- GI50 [3]: 6.84 µM (inactive)
- GI50 [4]: 1.61 µM (inactive)
- GI50 [5]: 1.29 µM (inactive)
- GI50 [6]: 1.44 µM (inactive)
- GI50 [7]: 1.89 µM (inactive)
- GI50 [8]: 1.27 µM (inactive)
- GI50 [9]: 1.5 µM (inactive)
- GI50 [10]: 1.61 µM (inactive)
- GI50 [11]: 1.55 µM (inactive)
- GI50 [12]: 1.26 µM (inactive)
- GI50 [13]: 1.47 µM (inactive)
- GI50 [14]: 2.37 µM (inactive)
- GI50 [15]: 1.96 µM (inactive)
- GI50 [16]: 0.724 µM (active)
- GI50 [17]: 3.07 µM (inactive)
- GI50 [18]: 1.84 µM (inactive)
- GI50 [19]: 1.26 µM (inactive)
- GI50 [20]: 1.06 µM (active)
- GI50 [21]: 1.32 µM (inactive)
- GI50 [22]: 1.46 µM (inactive)
- GI50 [23]: 1.66 µM (inactive)
- GI50 [24]: 1.51 µM (inactive)
- GI50 [25]: 1.67 µM (inactive)
- GI50 [26]: 1.56 µM (inactive)
- GI50 [27]: 2.16 µM (inactive)
- GI50 [28]: 1.6 µM (inactive)
- GI50 [29]: 1.11 µM (active)
- GI50 [30]: 1.62 µM (inactive)
- GI50 [31]: 1.7 µM (inactive)
- GI50 [32]: 1.39 µM (inactive)
- GI50 [33]: 2.7 µM (inactive)
- GI50 [34]: 0.383 µM (active)
- GI50 [35]: 26.2 µM (inactive)
- GI50 [36]: 1.26 µM (inactive)
- GI50 [37]: 2.67 µM (inactive)
- GI50 [38]: 2 µM (inactive)
- GI50 [39]: 1.48 µM (inactive)
- GI50 [40]: 1.54 µM (inactive)
- GI50 [41]: 1.94 µM (inactive)
- GI50 [42]: 1.11 µM (active)
- GI50 [43]: 8.43 µM
- GI50 [44]: 1.62 µM (inactive)
- GI50 [45]: 3.08 µM (inactive)
- GI50 [46]: 1.48 µM (inactive)
- GI50 [47]: 0.184 µM (active)
- GI50 [48]: 3.68 µM (inactive)
- GI50 [49]: 2.37 µM (inactive)
- GI50 [50]: 1.43 µM (inactive)
- GI50 [51]: 1.79 µM (inactive)
- GI50 [52]: 3.33 µM (inactive)
- GI50 [53]: 1.47 µM (inactive)
- GI50 [54]: 18.1 µM (inactive)
- GI50 [55]: 1.75 µM (inactive)
- GI50 [56]: 1.83 µM (inactive)
- GI50 [57]: 1.47 µM (inactive)
- GI50 [58]: 2.2 µM (inactive)
